Test systems include A498; EKVX; HCT-15; HL-60; IGROV-1; KM12; LOX IMVI; MOLT-4; Malme-3M; NCI-H460; NCI-H522; OVCAR-5; OVCAR-8; RPMI-8226; SF-539; SK-MEL-28; SK-MEL-2; SN12C; U-251; SR.
Holding throughout (assay): inhibition of tumour cell growth, NCI panel, 48 h

The values that follow come from ChEMBL document CHEMBL1201862, “PubChem BioAssay data set” (2004).

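Cultured in 96-well plates, cells were exposed to test compound for 48 hours across five concentrations. GI50 is the concentration that inhibits growth by half.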 Activity calls are given as the source filed them. Rule as the data show it: active = GI50 up to about 1.1 µM and inactive = higher.

In the case of `CC(=O)OC/C=C\Cn1ncc(=O)[nH]c1=O`, the GI50 in the test with A498 was 16.4 µM (inactive); in the test with EKVX, 20.3 µM (inactive); with HCT-15, 19.2 µM; in the test with HL-60, 11.3 µM (inactive); with IGROV-1 it was 17.9 µM (inactive); with KM12, 17 µM (inactive). The GI50 with LOX IMVI was 3.32 µM (inactive); in the test with MOLT-4, 19.2 µM (inactive); in the test on Malme-3M, 16.5 µM (inactive); with NCI-H460 it was 23.3 µM (inactive); with NCI-H522 it was 16.1 µM (inactive); in the test with OVCAR-5 it was 17.9 µM (inactive). Moreover, the GI50 with OVCAR-8 is 23.7 µM (inactive); in the test on RPMI-8226 it was 7.71 µM (inactive); in the test with SF-539 it was 18.2 µM (inactive); in the test on SK-MEL-28 it was 21.4 µM (inactive); in the test on SK-MEL-2 it was 18.1 µM (inactive); in the test on SN12C, 22.9 µM (inactive). For the same compound, the GI50 with U-251 was 15 µM (inactive).

For the compound `O=c1[nH]c(-c2ccccc2)nc2cc([N+](=O)[O-])c(/C(Cl)=C/c3ccccc3)cc12`, the GI50 in the test on EKVX is 46.5 µM (inactive); with HCT-15 it was 7.82 µM; in the test with IGROV-1, 55 µM (inactive); with KM12, 26.2 µM (inactive); in the test on MOLT-4 it was 50.8 µM (inactive); in the test on Malme-3M it was 24.3 µM (inactive). Further, the GI50 with NCI-H522 is 17.3 µM (inactive); in the test on OVCAR-5, > 100 µM (inactive); with OVCAR-8, 19.7 µM (inactive); with RPMI-8226, 16.1 µM (inactive); with SF-539, 25.2 µM (inactive); with SK-MEL-28, 26.2 µM (inactive). The GI50 in the test with SK-MEL-2 is 21.9 µM (inactive); with SN12C it was 36.6 µM (inactive); in the test with SR, 31.1 µM (inactive); in the test on U-251, 28.6 µM (inactive).

Turning to `CN(N)c1nc(N)c(C#N)c(C#N)c1C#N`, the GI50 in the test with HCT-15 is above 10 µM; in the test on HL-60, > 10 µM (inactive); in the test with IGROV-1 it was > 10 µM (inactive); in the test on KM12 it was > 10 µM (inactive); in the test on LOX IMVI it was > 10 µM (inactive); in the test with MOLT-4, > 10 µM (inactive). Further, the GI50 with Malme-3M, in the test on NCI-H522, with OVCAR-5, with OVCAR-8, with RPMI-8226 and with SF-539 was > 10 µM (inactive) throughout. The GI50 with SK-MEL-28, in the test with SN12C, in the test on SR and in the test with U-251 was > 10 µM (inactive) throughout.

For `CC1(C)CC[C@]2(C)CC[C@]3(C)C(=CC[C@@H]4[C@@]5(C)CCC(=O)C(C)(C)[C@@H]5[C@H](O)C[C@]43C)[C@@H]2C1`, the GI50 in the test with A498 is 17.3 µM (inactive); in the test on EKVX it was 17.8 µM (inactive); in the test with HCT-15, 18.6 µM; in the test with HL-60, 29.5 µM (inactive); with IGROV-1, 17 µM (inactive); with KM12 it was 19.5 µM (inactive). Further, the GI50 with LOX IMVI is 17.1 µM (inactive); in the test on MOLT-4 it was 31.5 µM (inactive); in the test with Malme-3M it was 17.5 µM (inactive); in the test on NCI-H460 it was 18 µM (inactive); in the test on NCI-H522, 17 µM (inactive); in the test with OVCAR-5, 16 µM (inactive). The GI50 in the test with OVCAR-8 was 18.9 µM (inactive); in the test on RPMI-8226, 23 µM (inactive); with SF-539 it was 17.8 µM (inactive); with SK-MEL-28, 17.6 µM (inactive); in the test with SK-MEL-2, 16 µM (inactive); with SN12C, 15.1 µM (inactive). In the test on U-251, the GI50 was 16.9 µM (inactive).

As for `N[C@@H](CSCSC[C@H](N)C(=O)O)C(=O)O`, the GI50 in the test on A498 was > 225 µM (inactive); in the test with EKVX, > 225 µM (inactive); in the test on HCT-15 it was above 225 µM; in the test on HL-60, 185 µM (inactive); in the test on IGROV-1, > 225 µM (inactive); with KM12 it was 126 µM (inactive). Also, the GI50 is > 225 µM (inactive) in the test on LOX IMVI; 195 µM (inactive) in the test with MOLT-4; > 225 µM (inactive) in the test with Malme-3M; > 225 µM (inactive) in the test on NCI-H460; > 225 µM (inactive) in the test with NCI-H522; > 225 µM (inactive) in the test with OVCAR-5. For the same compound, the GI50 in the test with OVCAR-8 is 35.6 µM (inactive); in the test with RPMI-8226 it was > 225 µM (inactive); with SF-539 it was > 225 µM (inactive); in the test on SK-MEL-28 it was > 225 µM (inactive); with SK-MEL-2 it was > 225 µM (inactive); in the test with SN12C it was > 225 µM (inactive). Further, the GI50 in the test with U-251 was > 225 µM (inactive).

With `COc1ccc(/C=C2\CC3C4CC=C5C[C@@H](O)CC[C@]5(C)C4CC[C@]3(C)\C2=N\O)cc1OC` (stereo partly specified), the GI50 was 5.4 µM (inactive) in the test on A498; 6 µM (inactive) in the test with EKVX; 4.32 µM in the test with HCT-15; 11.2 µM (inactive) with HL-60; 38.8 µM (inactive) with IGROV-1; 7.5 µM (inactive) with KM12. The GI50 was 6.92 µM (inactive) with LOX IMVI; 5.37 µM (inactive) with MOLT-4; 33.3 µM (inactive) with Malme-3M; 6.61 µM (inactive) with NCI-H460; 13.9 µM (inactive) in the test with NCI-H522; 16 µM (inactive) with OVCAR-5. In addition, the GI50 in the test on OVCAR-8 is 8.97 µM (inactive); in the test with RPMI-8226 it was 7.24 µM (inactive); in the test with SF-539, 7.26 µM (inactive); in the test with SK-MEL-28 it was 23 µM (inactive); in the test with SK-MEL-2 it was 7.57 µM (inactive); with SN12C, 15.7 µM (inactive). In the test with U-251, the GI50 was 9.2 µM (inactive).

For the compound `CSCC(CO)NC(=O)/C=C/c1c(C)[nH]c(=O)[nH]c1=O` (stereo unspecified), the GI50 was > 875 µM (inactive) in the test with A498; 454 µM (inactive) in the test with EKVX; 485 µM with HCT-15; 197 µM (inactive) with HL-60; > 875 µM (inactive) in the test with IGROV-1; 695 µM (inactive) in the test on KM12. Also, the GI50 in the test on LOX IMVI is 457 µM (inactive); in the test on MOLT-4 it was 232 µM (inactive); with Malme-3M, 307 µM (inactive); in the test with NCI-H460, 671 µM (inactive); in the test with NCI-H522, 45.8 µM (inactive); in the test on OVCAR-5 it was 352 µM (inactive). Further, the GI50 in the test on OVCAR-8 is 228 µM (inactive); with RPMI-8226, 661 µM (inactive); in the test on SF-539 it was > 875 µM (inactive); in the test on SK-MEL-28 it was > 875 µM (inactive); in the test with SK-MEL-2, 597 µM (inactive); in the test on SN12C, 367 µM (inactive). The GI50 in the test with U-251 was 462 µM (inactive).

Turning to `Nc1cc(S(=O)(=O)O)cc2cc(S(=O)(=O)O)c(/N=N/c3ccc(-c4ccc(/N=N/c5c(S(=O)(=O)O)cc6cc(S(=O)(=O)O)cc(N)c6c5O)cc4)cc3)c(O)c12`, the GI50 is > 100 µM (inactive) in the test on A498; > 100 µM (inactive) in the test with EKVX; above 100 µM with HCT-15; > 100 µM (inactive) with HL-60; > 100 µM (inactive) with IGROV-1; > 100 µM (inactive) in the test on KM12. For the same compound, the GI50 in the test with LOX IMVI, in the test on MOLT-4, with Malme-3M, in the test with NCI-H460, in the test with NCI-H522 and in the test with OVCAR-5 was > 100 µM (inactive) throughout. For the same compound, the GI50 in the test with OVCAR-8, with RPMI-8226, with SF-539, with SK-MEL-28, in the test on SK-MEL-2 and in the test with SN12C was > 100 µM (inactive) in each case. For the same compound, the GI50 with U-251 was > 100 µM (inactive).

In the case of `COc1ccc(N[S+]([O-])c2ccc(-c3ccccc3)cc2)cc1` (stereo unspecified), the GI50 in the test on EKVX is > 100 µM (inactive); in the test on HCT-15 it was above 100 µM; with HL-60, > 100 µM (inactive); with IGROV-1, 8.55 µM (inactive); with KM12 it was 70.3 µM (inactive); in the test on LOX IMVI, 19.5 µM (inactive). Also, the GI50 in the test on MOLT-4 was > 100 µM (inactive); with Malme-3M, > 100 µM (inactive); with NCI-H460, > 100 µM (inactive); in the test with NCI-H522, > 100 µM (inactive); in the test on OVCAR-5 it was > 100 µM (inactive); with OVCAR-8 it was 29.5 µM (inactive). The GI50 in the test on RPMI-8226 is > 100 µM (inactive); with SF-539 it was > 100 µM (inactive); with SK-MEL-28, 91.4 µM (inactive); in the test on SN12C it was > 100 µM (inactive); with SR, > 100 µM (inactive); in the test with U-251, 35.1 µM (inactive).

`OC1COC2CC(Nc3ccccn3)OC12` (stereo unspecified): the GI50 in the test with EKVX was > 100 µM (inactive); in the test on HCT-15 it was above 100 µM; in the test on IGROV-1 it was > 100 µM (inactive); in the test with KM12 it was > 100 µM (inactive); in the test on LOX IMVI it was > 100 µM (inactive); with MOLT-4, > 100 µM (inactive). Besides, the GI50 with Malme-3M, with NCI-H460, with NCI-H522, in the test with OVCAR-5, in the test on OVCAR-8 and in the test on RPMI-8226 was > 100 µM (inactive) each time. The GI50 with SF-539, in the test on SK-MEL-28, in the test on SK-MEL-2, with SN12C, in the test with SR and in the test on U-251 was > 100 µM (inactive) each time.

`CC(C)=C1C2CC3(C)CCC2(C)CCC13.CC1=CCC2C3(C)CCC2(C(C)C)C1C3` (stereo unspecified): the GI50 in the test on A498 is 34 µM (inactive); in the test with EKVX it was 21.6 µM (inactive); with HCT-15, 16.9 µM; with HL-60, 24.2 µM (inactive); with IGROV-1 it was 16.5 µM (inactive); in the test on KM12 it was 19.5 µM (inactive). Further, the GI50 was 28.8 µM (inactive) with LOX IMVI; 31.9 µM (inactive) in the test on MOLT-4; 43.8 µM (inactive) with Malme-3M; 17.2 µM (inactive) with NCI-H460; 20.8 µM (inactive) in the test with NCI-H522; 18.9 µM (inactive) with OVCAR-5. The GI50 in the test on OVCAR-8 was 17.3 µM (inactive); in the test on RPMI-8226 it was 24.9 µM (inactive); with SF-539 it was 27.4 µM (inactive); in the test on SK-MEL-28, 34.2 µM (inactive); in the test with SK-MEL-2, 17.5 µM (inactive); in the test with SN12C it was 18.2 µM (inactive). For the same compound, the GI50 in the test on U-251 is 23.4 µM (inactive).
